Assay results: ChEMBL document CHEMBL5370648, “Rational Design of Bioorthogonally Activatable PROTAC for Tumor-Targeted Protein Degradation” (J Med Chem, 2023)
The source made the active and inactive calls. The rule behind the calls is not given here.

Key:
[1] = Retention time of the compound by HPLC method; format: physicochemical
T47D [2] = experiment: Cytotoxicity against human T47D cells assessed as inhbition of cell growth measured after 48 hrs by CCK-8 method; format: functional, cell-based
MDA-MB-231 [3] = experiment: Cytotoxicity against human MDA-MB-231 cells assessed as inhbition of cell growth measured after 48 hrs by CCK-8 method; format: functional, cell-based; conditions: MDA-MB-231, 48 h
MCF7 [4] = experiment: Cytotoxicity against human MCF7 cells assessed as inhbition of cell growth measured after 48 hrs by CCK-8 method; format: functional, cell-based; conditions: MCF7, 48 h
[5] = target: T1, von Hippel-Lindau disease tumor suppressor/Bromodomain-containing protein 4 (Homo sapiens, UniProt O60885+P40337); experiment: PROTAC activity at BRD4/VHL E3 ligase in human T47D cells assessed as decrease in BRD4 expression incubated for 48 hrs by Western blot analysis; format: cell-based
[6] = target: T1, von Hippel-Lindau disease tumor suppressor/Bromodomain-containing protein 4; experiment: PROTAC activity at BRD4/VHL E3 ligase in human MDA-MB-231 cells assessed as decrease in BRD4 expression incubated for 48 hrs by Western blot analysis; format: cell-based
[7] = target: T1, von Hippel-Lindau disease tumor suppressor/Bromodomain-containing protein 4; experiment: PROTAC activity at BRD4/VHL E3 ligase in human MCF7 cells assessed as decrease in BRD4 expression incubated for 48 hrs by Western blot analysis; format: cell-based
[8] = target: T1, von Hippel-Lindau disease tumor suppressor/Bromodomain-containing protein 4; experiment: PROTAC activity at BRD4/VHL E3 ligase in human T47D cells assessed as suppression of c-Myc expression incubated for 48 hrs by Western blot analysis; format: cell-based
[9] = target: T1, von Hippel-Lindau disease tumor suppressor/Bromodomain-containing protein 4; experiment: PROTAC activity at BRD4/VHL E3 ligase in human T47D cells assessed as induction of degradation of intracellular BRD4 at 200 nM incubated for 48 hrs by immunofluorescence staining assay; format: cell-based
[10] = target: T1, von Hippel-Lindau disease tumor suppressor/Bromodomain-containing protein 4; experiment: PROTAC activity at BRD4/VHL E3 ligase in human MDA-MB-231 cells assessed as induction of degradation of intracellular BRD4 at 200 nM incubated for 48 hrs by immunofluorescence staining assay; format: cell-based
[11] = target: T1, von Hippel-Lindau disease tumor suppressor/Bromodomain-containing protein 4; experiment: PROTAC activity at BRD4/VHL E3 ligase in human MCF7 cells assessed as induction of degradation of intracellular BRD4 at 200 nM incubated for 48 hrs by immunofluorescence staining assay; format: cell-based
[12] = target: T1, von Hippel-Lindau disease tumor suppressor/Bromodomain-containing protein 4; experiment: PROTAC activity at BRD4/VHL E3 ligase in human T47D cells assessed as induction of degradation of BRD4 at upto 1000 nM incubated for 48 hrs in presence of MG132 by immunofluorescence staining assay; format: cell-based
[13] = target: T1, von Hippel-Lindau disease tumor suppressor/Bromodomain-containing protein 4; experiment: PROTAC activity at BRD4/VHL E3 ligase in human T47D cells assessed as induction of degradation of BRD4 at upto 1000 nM incubated for 48 hrs in presence of MLN4924 by immunofluorescence staining assay; format: cell-based
[14] = target: T1, von Hippel-Lindau disease tumor suppressor/Bromodomain-containing protein 4; experiment: PROTAC activity at BRD4/VHL E3 ligase in human T47D cells assessed as degradation of BRD4 expression incubated for 48 hrs by Western blot analysis; format: cell-based
[15] = target: T1, von Hippel-Lindau disease tumor suppressor/Bromodomain-containing protein 4; experiment: PROTAC activity at BRD4/VHL E3 ligase in human MDA-MB-231 cells assessed as degradation of BRD4 expression incubated for 48 hrs by Western blot analysis; format: cell-based
[16] = target: T1, von Hippel-Lindau disease tumor suppressor/Bromodomain-containing protein 4; experiment: PROTAC activity at BRD4/VHL E3 ligase in human MCF7 cells assessed as degradation of BRD4 expression incubated for 48 hrs by Western blot analysis; format: cell-based
[17] = target: T1, von Hippel-Lindau disease tumor suppressor/Bromodomain-containing protein 4; experiment: PROTAC activity at BRD4/VHL E3 ligase in human MDA-MB-231 cells assessed as suppression of c-Myc expression incubated for 48 hrs by Western blot analysis; format: cell-based
[18] = target: T1, von Hippel-Lindau disease tumor suppressor/Bromodomain-containing protein 4; experiment: PROTAC activity at BRD4/VHL E3 ligase in human MCF7 cells assessed as suppression of c-Myc expression incubated for 48 hrs by Western blot analysis; format: cell-based
[19] = target: T1, von Hippel-Lindau disease tumor suppressor/Bromodomain-containing protein 4; experiment: PROTAC activity at BRD4/VHL E3 ligase in human T47D cells assessed as activation of caspase-3 expression incubated for 48 hrs by Western blot analysis; format: cell-based
[20] = target: T1, von Hippel-Lindau disease tumor suppressor/Bromodomain-containing protein 4; experiment: PROTAC activity at BRD4/VHL E3 ligase in human MDA-MB-231 cells assessed as activation of caspase-3 expression incubated for 48 hrs by Western blot analysis; format: cell-based
[21] = target: T1, von Hippel-Lindau disease tumor suppressor/Bromodomain-containing protein 4; experiment: PROTAC activity at BRD4/VHL E3 ligase in human MCF7 cells assessed as activation of caspase-3 expression incubated for 48 hrs by Western blot analysis; format: cell-based
MCF7 [22] = experiment: Antitumor activity against human MCF7 cells xenografted in BALB/c nude mouse assessed as tumor growth inhibition at 10 mg/kg measured after 16 days; format: functional, organism-based; conditions: time 16.0 day
MCF7 [23] = experiment: Antitumor activity against human MCF7 cells xenografted in BALB/c nude mouse assessed as fold increase in tumor volume at 10 mg/kg measured at day 23 post injection; format: functional; conditions: time 23 day
[24] = Toxicity in BALB/c nude mouse assessed as animal death at 10 mg/kg measured after 16 days; format: organism-based; conditions: in vivo, 384 h, time 16 day
MCF7 [25] = experiment: Antitumor activity against human MCF7 cells xenografted in BALB/c nude mouse model assessed as inhibition of tumor cell proliferation by measuring reduction in Ki67 staining at 10 mg/kg administered for 16 days by immunohistochemical analysis; format: functional, organism-based; conditions: time 16.0 day
[26] = target: T1, von Hippel-Lindau disease tumor suppressor/Bromodomain-containing protein 4; experiment: In vivo PROTAC activity at BRD4/VHL E3 ligase in BALB/c nude mouse xenografted with human MCF7 cells assessed as reduction in BRD4 protein level in tumor 10 mg/kg measured after 48 hrs by Western blot analysis; format: functional, organism-based
MCF7 [27] = experiment: Antitumor activity against human MCF7 cells xenografted in BALB/c nude mouse assessed as apoptosis at 10 mg/kg measured after 48 hrs by Western blot analysis; format: functional, organism-based
T47D [28] = experiment: Cytotoxicity against human T47D cells assessed as inhbition of cell growth at 20.0 uM measured after 48 hrs by CCK-8 method; format: functional, cell-based
MDA-MB-231 [29] = experiment: Cytotoxicity against human MDA-MB-231 cells assessed as inhbition of cell growth at 20.0 uM measured after 48 hrs by CCK-8 method; format: functional, cell-based

T1 sequence (P40337 whole entry, looked up, other chains not shown): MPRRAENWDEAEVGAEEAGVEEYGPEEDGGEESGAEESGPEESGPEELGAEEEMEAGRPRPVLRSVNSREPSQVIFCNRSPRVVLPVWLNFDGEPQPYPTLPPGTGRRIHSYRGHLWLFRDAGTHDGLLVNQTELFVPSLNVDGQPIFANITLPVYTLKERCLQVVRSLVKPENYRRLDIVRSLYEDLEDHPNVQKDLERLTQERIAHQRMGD

**Q.** Which Retention_time [1] does the source give for Cc1ncsc1-c1ccc([C@H](C)NC(=O)[C@@H]2C[C@@H](O)CN2C(=O)[C@@H](NC(=O)COCCOCCOCCNC(=O)CC2N=C(c3ccc(Cl)cc3)c3c(sc(C)c3C)-n3c(C)nnc32)C(C)(C)C)cc1 (stereo not given in full) here?
**A.** 18.96 min

**Q.** And the IC50 (T47D [2])?
**A.** 253 nM

**Q.** What about the IC50 (MDA-MB-231 [3]) of the same compound?
**A.** 225 nM

**Q.** What about the IC50 (MCF7 [4]) of the same compound?
**A.** 183 nM

**Q.** What about the EC50 [5] of the same compound?
**A.** 56.6 nM

**Q.** What about the EC50 [6] of the same compound?
**A.** 3.96 nM

**Q.** What about the EC50 [7] of the same compound?
**A.** 50.3 nM

**Q.** What about the Activity [8] of the same compound?
**A.** Active

**Q.** What about the Activity [9] of the same compound?
**A.** Active

**Q.** What about the Activity [10] of the same compound?
**A.** Active

**Q.** And the Activity [11]?
**A.** Active

**Q.** What about the Activity [12] of the same compound?
**A.** inactive

**Q.** And the Activity [13]?
**A.** inactive

**Q.** And the Activity [14]?
**A.** Active

**Q.** What about the Activity [15] of the same compound?
**A.** Active

**Q.** And the Activity [16]?
**A.** Active

**Q.** And the Activity [17]?
**A.** Active

**Q.** And the Activity [18]?
**A.** Active

**Q.** And the Activity [19]?
**A.** Active

**Q.** What about the Activity [20] of the same compound?
**A.** Active

**Q.** And the Activity [21]?
**A.** Active

**Q.** And the Activity (MCF7 [22])?
**A.** Active

**Q.** And the “fold change (FC)” value (MCF7 [23])?
**A.** 1.58

**Q.** What about the Activity [24] of the same compound?
**A.** Toxic

**Q.** What about the Activity (MCF7 [25]) of the same compound?
**A.** Active

**Q.** What about the Activity [26] of the same compound?
**A.** Active

**Q.** What about the Activity (MCF7 [27]) of the same compound?
**A.** Active

**Q.** What does the source list for Cc1ncsc1-c1ccc([C@H](C)NC(=O)[C@@H]2C[C@@H](OC(=O)OC3/C=C/CCCCC3)CN2C(=O)[C@@H](NC(=O)COCCOCCOCCNC(=O)CC2N=C(c3ccc(Cl)cc3)c3c(sc(C)c3C)-n3c(C)nnc32)C(C)(C)C)cc1 (stereo not given in full)?
**A.** Retention_time [1]: 19.3 min; Activity (T47D [28]): inactive; Activity (MDA-MB-231 [29]): inactive
